Assay results as given in article PMC8341105, “Mapping the energy landscape of protein–ligand binding via linear free energy relationships determined by protein NMR relaxation dispersion” (RSC Chemical Biology, 2020).
“And” between values parts separate entries of the source, which are not always exact repeats. Identical values can stand only once. Like-named read-outs stand apart in the source and are kept apart here.

How the values were obtained:
[1] = target: T1, galectin-3C (Homo sapiens, UniProt P17931); assay: 15N CPMG relaxation dispersion of ligand binding kinetics; conditions: for kex, Group 1: Group 1 residues fitted jointly: slow exchange corresponding to ligand binding/unbinding; for kex, Group 2: Group 2 residues fitted jointly: fast conformational exchange independent of ligand binding/unbinding; for Population (relative population of the bound state, pB), Group 1: global fit of Group 1 residues, near-saturated NMR sample
T1 construct: the carbohydrate-recognition domain of galectin-3 (galectin-3C); made in house
T1 sequence (P17931 118-248 limits assumed): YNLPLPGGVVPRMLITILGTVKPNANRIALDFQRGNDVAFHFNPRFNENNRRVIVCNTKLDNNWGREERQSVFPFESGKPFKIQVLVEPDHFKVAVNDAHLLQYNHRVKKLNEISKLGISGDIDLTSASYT
Text: We measured equilibrium exchange between free and ligand-bound states of galectin-3C using ^15N CPMG relaxation dispersion experiments[15] acquired on near-saturated samples at two static magnetic field strengths. […] We analyzed the relaxation dispersion profiles using a two-state exchange model (eqn (1)–(4)).[18,27,28] […] All residues within a given group were then fitted jointly to yield global exchange parameters, kex and p, and residue-specific ΔδCPMG (ESI, ^† Table S1 lists all residues included in the fit for the two groups of each complex together with the fitted parameters). In the following, we focus on the exchange related to ligand binding and release.
In the present case, we determined all exchange parameters directly from the relaxation dispersion data. […] This requires that the ligand and protein concentrations are measured accurately, Kd is known from previous experiments, and the NMR spectra of the free and bound states are available; these requirements are easily met in most cases. While the amplitude and shape of the relaxation dispersion profile depends intricately on the populations, rates, and chemical shift difference, it may be expected that off-rates can be determined for systems with dissociation constants in the range of 0.1 μM to 1 mM.
^15N-Labeled galectin-3C samples were prepared by extensive dialysis (Slide-A-Lyzer MINI Dialysis, ThermoScientific) against 5 mM 4-(2-hydroxyethyl)-1-piperazinethanesulfonic acid (HEPES) buffer to remove all lactose, followed by centrifugation at 14 000 rpm for 5 minutes to remove any aggregates. The protein concentration was determined by UV absorption at 280 nm, as described before.[33] […] Ligand–galectin-3C complexes were prepared by titrating freshly sonicated stock solutions of the ligands into apo galectin-3C samples while monitoring the galectin-3C chemical shifts in the ^15N heteronuclear single-quantum correlation (HSQC) spectrum. At the end of each titration, the total amount of added DMSO in the L2 and L3 samples was 2% (v/v).
Relaxation-compensated CPMG relaxation dispersion experiments[15] were performed using the constant-time approach[34] covering 18–24 different refocusing frequencies, νcp. An equilibration period of 5 ms was added prior to the CPMG refocusing pulse train to ensure that the initial magnetizations reflect the relative populations of the exchanging states.[35] […] Spectra were processed using NMRPipe.[37] The processing protocol involved a solvent filter, cosine-squared apodization functions, zero filling to twice the number of increments in all dimensions, and a polynomial baseline correction in the ^1H dimension. Relaxation rates were extracted using PINT, which employs line-shape fitting to resolve overlapped peaks.[38] Peak intensities were evaluated using a weighted sum of Lorentzian and Gaussian line shapes. Standard deviations were determined by propagating the errors of intensities estimated from the baseplane noise. Error estimates are reported as one standard deviation.
The relaxation dispersion data were analyzed using CPMGfit v2.22, an in-house Matlab program.

[2] = target: T1, galectin-3C; set-up: method as in PMID 20873837; conditions: ITC under sample conditions near-identical to those used for CPMG dispersion experiments; determined previously; cited from earlier work
[3] = k on is determined from Kd and koff (kon = koff/Kd)
[4] = koff = kex(1 − pB), 15N CPMG relaxation dispersion, 301 K, near-saturated samples

Row | Compound | kex, Group 1 [1] [s⁻¹] | kex, Group 2 [1] [s⁻¹] | Population (relative population of the bound state, pB), Group 1 [1] | kon [1, 3] | koff [1, 4] [s⁻¹] | kon ([1]; k on is determined from Kd and koff (kon = koff/Kd), read-out: k on) [M⁻¹ s⁻¹] | koff ([1]; koff = kex(1 − pB), 15N CPMG relaxation dispersion, 301 K, near-saturated samples, read-out: k off) [s⁻¹] | koff [1] [s⁻¹] | kon [1] [M⁻¹ s⁻¹] | Kd [2] [µM]
1 | OC[C@H]1O[C@@H](S[C@@H]2O[C@H](CO)[C@@H](O)[C@H](O)[C@H]2O)[C@H](O)[C@@H](n2cc(-c3ccc(F)cc3)nn2)[C@H]1O [pL4, para-fluoro-phenyltriazolyl-galactosylthioglucoside] | 859 ± 115 | 8386 ± 691 | 0.99 ± 0.01 |  |  |  |  | 13 ± 1 | 5.2e+06 ± 800000 | 2.5 ± 0.3
2 | OC[C@H]1O[C@@H](S[C@@H]2O[C@H](CO)[C@@H](O)[C@H](O)[C@H]2O)[C@H](O)[C@@H](n2cc(-c3cccc(F)c3)nn2)[C@H]1O [mL4, meta-fluoro-phenyltriazolyl-galactosylthioglucoside] | 808 ± 55 | 4804 ± 448 |  |  |  |  |  | 8 ± 1 | 3.9e+06 ± 700000 | 
3 | OC[C@H]1O[C@@H](S[C@@H]2O[C@H](CO)[C@@H](O)[C@H](O)[C@H]2O)[C@H](O)[C@@H](n2cc(-c3ccccc3F)nn2)[C@H]1O [oL4, ortho-fluoro-phenyltriazolyl-galactosylthioglucoside] | 1210 ± 209 | 15800 ± 386 | 0.97 ± 0.01 |  |  | 4.4e+06 ± 1.1e+06 | 32 ± 5 |  |  | 

Second part, led by results:

Row | kex, Group 1 [1] [s⁻¹] | kex, Group 2 [1] [s⁻¹] | Population (relative population of the bound state, pB), Group 1 [1] | kon [1, 3] | koff [1, 4] [s⁻¹] | kon ([1]; k on is determined from Kd and koff (kon = koff/Kd), read-out: k on) [M⁻¹ s⁻¹] | koff ([1]; koff = kex(1 − pB), 15N CPMG relaxation dispersion, 301 K, near-saturated samples, read-out: k off) [s⁻¹] | Compound | koff [1] [s⁻¹] | kon [1] [M⁻¹ s⁻¹] | Kd [2] [µM]
4 | 123 ± 20 | 4110 ± 760 | 0.93–0.94 and 0.94 ± 0.01 | 2.4 ± 0.4 10^6 M^−1 s^−1 | 8 ± 1 |  |  | 3′-(4-methoxy-2,3,5,6-tetrafluorobenzamido)-N-acetyllactosamine [Ligand L3] |  |  | 3.3 ± 0.1
5 | 385 ± 126 | 5370 ± 850 | 0.93–0.94 and 0.93 ± 0.04 | 1.6 ± 0.5 10^6 M^−1 s^−1 | 28 ± 9 |  |  | 3′-benzamido-N-acetyllactosamine [Ligand L2] |  |  | 18.2 ± 0.2
